Measurements: PubChem BioAssay (NCI)
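Following 48 hours of exposure in 96-well plates, responses at five concentrations were used to interpolate endpoints linearly. TGI: total growth inhibition.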

Legend:
Experiment in all cases: growth of human tumour cells (NCI), 48 h
SF-295 CNS = tested on: SF-295 CNS
SN12C renal = tested on: SN12C renal
T-47D breast = tested on: T-47D breast
SK-MEL-28 melanoma = tested on: SK-MEL-28 melanoma
PC-3 prostate = tested on: PC-3 prostate
BT-549 breast = tested on: BT-549 breast
OVCAR-8 ovarian = tested on: OVCAR-8 ovarian
CCRF-CEM leukemia = tested on: CCRF-CEM leukemia
MDA-MB-435 = tested on: MDA-MB-435
IGROV1 ovarian = tested on: IGROV1 ovarian
NCI/ADR-RES ovarian = tested on: NCI/ADR-RES ovarian
MOLT-4 leukemia = tested on: MOLT-4 leukemia
U251 CNS = tested on: U251 CNS
KM12 colon = tested on: KM12 colon
A549 NSCLC = tested on: A549 NSCLC
MCF7 breast = tested on: MCF7 breast
DU-145 prostate = tested on: DU-145 prostate
M14 melanoma = tested on: M14 melanoma
SK-OV-3 ovarian = tested on: SK-OV-3 ovarian
HCC-2998 colon = tested on: HCC-2998 colon
SNB-75 CNS = tested on: SNB-75 CNS
UO-31 renal = tested on: UO-31 renal
786-0 renal = tested on: 786-0 renal
UACC-257 melanoma = tested on: UACC-257 melanoma
SK-MEL-2 melanoma = tested on: SK-MEL-2 melanoma
RPMI-8226 leukemia = tested on: RPMI-8226 leukemia
SW-620 colon = tested on: SW-620 colon
CAKI-1 renal = tested on: CAKI-1 renal
SNB-19 CNS = tested on: SNB-19 CNS
HCT-15 colon = tested on: HCT-15 colon
K-562 leukemia = tested on: K-562 leukemia
TK-10 renal = tested on: TK-10 renal
HOP-62 NSCLC = tested on: HOP-62 NSCLC
A498 renal = tested on: A498 renal
MDA-N = tested on: MDA-N
COLO 205 colon = tested on: COLO 205 colon
EKVX NSCLC = tested on: EKVX NSCLC
OVCAR-5 ovarian = tested on: OVCAR-5 ovarian
OVCAR-3 ovarian = tested on: OVCAR-3 ovarian
MALME-3M melanoma = tested on: MALME-3M melanoma
RXF 393 renal = tested on: RXF 393 renal
OVCAR-4 ovarian = tested on: OVCAR-4 ovarian
HS 578T breast = tested on: HS 578T breast
NCI-H226 lung = tested on: NCI-H226 lung
UACC-62 melanoma = tested on: UACC-62 melanoma
ACHN renal = tested on: ACHN renal
SF-268 CNS = tested on: SF-268 CNS
SK-MEL-5 melanoma = tested on: SK-MEL-5 melanoma
SF-539 CNS = tested on: SF-539 CNS
HL-60(TB) leukemia = tested on: HL-60(TB) leukemia
NCI-H522 lung = tested on: NCI-H522 lung
LOX IMVI melanoma = tested on: LOX IMVI melanoma
SR leukemia = tested on: SR leukemia
NCI-H23 lung = tested on: NCI-H23 lung
HCT-116 colon = tested on: HCT-116 colon
HT29 colon = tested on: HT29 colon
MDA-MB-231 breast = tested on: MDA-MB-231 breast

CC(C)/C=N\N1C(N)=C(C#N)C(C#N)(C#N)C1C(C)C (stereo not given)
TGI (SF-295 CNS): > 100 µM
TGI (SN12C renal): > 100 µM
TGI (T-47D breast): > 100 µM
TGI (SK-MEL-28 melanoma): > 100 µM
TGI (PC-3 prostate): > 100 µM
TGI (BT-549 breast): 92.3 µM
TGI (OVCAR-8 ovarian): 58.1 µM
TGI (CCRF-CEM leukemia): 93.2 µM
TGI (MDA-MB-435): 58.6 µM
TGI (IGROV1 ovarian): > 100 µM
TGI (NCI/ADR-RES ovarian): 82.8 µM
TGI (MOLT-4 leukemia): > 100 µM
TGI (U251 CNS): > 100 µM
TGI (KM12 colon): > 100 µM
TGI (A549 NSCLC): > 100 µM
TGI (MCF7 breast): > 100 µM
TGI (DU-145 prostate): > 100 µM
TGI (M14 melanoma): > 100 µM
TGI (SK-OV-3 ovarian): > 100 µM
TGI (HCC-2998 colon): > 100 µM
TGI (SNB-75 CNS): > 100 µM
TGI (UO-31 renal): > 100 µM
TGI (786-0 renal): > 100 µM
TGI (UACC-257 melanoma): > 100 µM
TGI (SK-MEL-2 melanoma): > 100 µM
TGI (RPMI-8226 leukemia): > 100 µM
TGI (SW-620 colon): > 100 µM
TGI (CAKI-1 renal): > 100 µM
TGI (SNB-19 CNS): > 100 µM
TGI (HCT-15 colon): > 100 µM
TGI (K-562 leukemia): > 100 µM
TGI (TK-10 renal): > 100 µM
TGI (HOP-62 NSCLC): > 100 µM
TGI (A498 renal): > 100 µM
TGI (MDA-N): 69.8 µM
TGI (COLO 205 colon): > 100 µM
TGI (EKVX NSCLC): > 100 µM
TGI (OVCAR-5 ovarian): > 100 µM
TGI (OVCAR-3 ovarian): > 100 µM
TGI (MALME-3M melanoma): > 100 µM
TGI (RXF 393 renal): > 100 µM
TGI (OVCAR-4 ovarian): > 100 µM
TGI (HS 578T breast): > 100 µM
TGI (NCI-H226 lung): > 100 µM
TGI (UACC-62 melanoma): 76.5 µM
TGI (ACHN renal): > 100 µM
TGI (SF-268 CNS): > 100 µM
TGI (SK-MEL-5 melanoma): > 100 µM
TGI (SF-539 CNS): 64.8 µM
TGI (HL-60(TB) leukemia): 91.7 µM
TGI (NCI-H522 lung): > 100 µM
TGI (LOX IMVI melanoma): > 100 µM
TGI (SR leukemia): 82.9 µM
TGI (NCI-H23 lung): > 100 µM
TGI (HCT-116 colon): > 100 µM
TGI (HT29 colon): 80 µM
TGI (MDA-MB-231 breast): > 100 µM

COc1c2c(cc3occ(-c4ccc(CC=C(C)C)cc4)c(=O)c13)OC(C)(C)C=C2
TGI (SF-295 CNS): > 100 µM
TGI (SN12C renal): > 100 µM
TGI (T-47D breast): > 100 µM
TGI (SK-MEL-28 melanoma): > 100 µM
TGI (PC-3 prostate): > 100 µM
TGI (BT-549 breast): > 100 µM
TGI (OVCAR-8 ovarian): > 100 µM
TGI (CCRF-CEM leukemia): > 100 µM
TGI (MDA-MB-435): > 100 µM
TGI (IGROV1 ovarian): > 100 µM
TGI (NCI/ADR-RES ovarian): > 100 µM
TGI (MOLT-4 leukemia): 52.1 µM
TGI (U251 CNS): > 100 µM
TGI (KM12 colon): > 100 µM
TGI (A549 NSCLC): > 100 µM
TGI (MCF7 breast): > 100 µM
TGI (DU-145 prostate): > 100 µM
TGI (M14 melanoma): > 100 µM
TGI (SK-OV-3 ovarian): > 100 µM
TGI (HCC-2998 colon): > 100 µM
TGI (SNB-75 CNS): > 100 µM
TGI (UO-31 renal): > 100 µM
TGI (786-0 renal): > 100 µM
TGI (UACC-257 melanoma): > 100 µM
TGI (SK-MEL-2 melanoma): 62.7 µM
TGI (RPMI-8226 leukemia): 50.3 µM
TGI (SW-620 colon): > 100 µM
TGI (CAKI-1 renal): > 100 µM
TGI (SNB-19 CNS): > 100 µM
TGI (HCT-15 colon): > 100 µM
TGI (K-562 leukemia): > 100 µM
TGI (TK-10 renal): > 100 µM
TGI (HOP-62 NSCLC): > 100 µM
TGI (MDA-N): > 100 µM
TGI (COLO 205 colon): > 100 µM
TGI (EKVX NSCLC): > 100 µM
TGI (OVCAR-5 ovarian): > 100 µM
TGI (OVCAR-3 ovarian): > 100 µM
TGI (MALME-3M melanoma): > 100 µM
TGI (RXF 393 renal): > 100 µM
TGI (HS 578T breast): > 100 µM
TGI (NCI-H226 lung): > 100 µM
TGI (UACC-62 melanoma): > 100 µM
TGI (ACHN renal): > 100 µM
TGI (SF-268 CNS): > 100 µM
TGI (SK-MEL-5 melanoma): 48.9 µM
TGI (HL-60(TB) leukemia): 46.4 µM
TGI (NCI-H522 lung): > 100 µM
TGI (LOX IMVI melanoma): > 100 µM
TGI (SR leukemia): > 100 µM
TGI (NCI-H23 lung): > 100 µM
TGI (HCT-116 colon): > 100 µM
TGI (HT29 colon): > 100 µM
TGI (MDA-MB-231 breast): > 100 µM

CCNCC(O)COc1ccc2c(c1)[n+]([O-])nc(N)[n+]2[O-] (stereo not given)
TGI (SF-295 CNS): > 100 µM
TGI (SN12C renal): > 100 µM
TGI (T-47D breast): > 100 µM
TGI (SK-MEL-28 melanoma): > 100 µM
TGI (PC-3 prostate): > 100 µM
TGI (BT-549 breast): > 100 µM
TGI (OVCAR-8 ovarian): > 100 µM
TGI (CCRF-CEM leukemia): > 100 µM
TGI (MDA-MB-435): > 100 µM
TGI (IGROV1 ovarian): > 100 µM
TGI (NCI/ADR-RES ovarian): > 100 µM
TGI (MOLT-4 leukemia): 56 µM
TGI (U251 CNS): > 100 µM
TGI (KM12 colon): > 100 µM
TGI (A549 NSCLC): > 100 µM
TGI (MCF7 breast): > 100 µM
TGI (DU-145 prostate): > 100 µM
TGI (M14 melanoma): > 100 µM
TGI (SK-OV-3 ovarian): 82.1 µM
TGI (SNB-75 CNS): > 100 µM
TGI (UO-31 renal): > 100 µM
TGI (786-0 renal): > 100 µM
TGI (UACC-257 melanoma): > 100 µM
TGI (SK-MEL-2 melanoma): > 100 µM
TGI (RPMI-8226 leukemia): > 100 µM
TGI (SW-620 colon): > 100 µM
TGI (CAKI-1 renal): > 100 µM
TGI (SNB-19 CNS): > 100 µM
TGI (HCT-15 colon): > 100 µM
TGI (K-562 leukemia): > 100 µM
TGI (TK-10 renal): > 100 µM
TGI (HOP-62 NSCLC): > 100 µM
TGI (A498 renal): > 100 µM
TGI (MDA-N): > 100 µM
TGI (COLO 205 colon): > 100 µM
TGI (EKVX NSCLC): > 100 µM
TGI (OVCAR-5 ovarian): > 100 µM
TGI (OVCAR-3 ovarian): > 100 µM
TGI (OVCAR-4 ovarian): > 100 µM
TGI (HS 578T breast): > 100 µM
TGI (NCI-H226 lung): > 100 µM
TGI (UACC-62 melanoma): 69.8 µM
TGI (ACHN renal): > 100 µM
TGI (SF-268 CNS): > 100 µM
TGI (SK-MEL-5 melanoma): > 100 µM
TGI (SF-539 CNS): > 100 µM
TGI (HL-60(TB) leukemia): > 100 µM
TGI (NCI-H522 lung): 43.6 µM
TGI (LOX IMVI melanoma): 27.3 µM
TGI (SR leukemia): > 100 µM
TGI (NCI-H23 lung): > 100 µM
TGI (HCT-116 colon): > 100 µM
TGI (HT29 colon): > 100 µM
TGI (MDA-MB-231 breast): > 100 µM
